# Earlier results, collected in patent publication US9833411B2, “Solid oral dosage forms” (Enteris Biopharma, Inc., priority 2015, dated 2017).
# How the values were obtained:
# [1] = tested on: Methicillin-Resistant Staphylococcus aureus (MRSA), Stenotrophomonas maltophilia, Haemophilus influenzae, and Neisseria gonorrhoeae; conditions: values reported
# [2] = known formulations
smiles,measurement,setting,value
CN(C)c1cc(NC(=O)CNC(C)(C)C)c(O)c2c1C[C@H]1C[C@H]3[C@H](N(C)C)C(O)=C(C(N)=O)C(=O)[C@@]3(O)C(O)=C1C2=O [Tigecycline],MIC,[1],2 µg/mL
same,aqueous solubility,,approximately 300 mg/mL
same,maximal oral bioavailability % (% F),[2],less than 5%
